According to patent US7192734B2, “Method of testing for the presence of microorganisms in a gaseous environment comprising hydrogen peroxide” (Millipore Corporation, priority 2002, dated 2007):

Key:
microorganisms [1] = settings: 1 m^3 air comprising 0.3 ppm sprayed hydrogen peroxide; TSA growth medium
Experimental: The surface of the growth medium was spread with an aqueous suspension comprising a predetermined number of microorganisms.
The TSA growth media were next placed in a temperature-controlled incubator to enable the growth of the colonies of microorganisms.

[2] = system: Miccrococus luteus ATCC9342; test: Tolerance in drastic conditions: 100 and 300 ppm hydrogen peroxide, 1% and 5% pyruvate in TSA (Example 5, part 3, Table I); format: cell-based, Miccrococcus luteus; settings: hydrogen peroxide 300 ppm; pyruvate 5%
Excerpt: The conditions of Example 3 were reproduced using high concentrations of pyruvate (≧1%), in the presence or absence of hydrogen peroxide in the gaseous environment.
3/ Tolerance of Miccrococcus luteus in drastic conditions, when hydrogen peroxide is raised up to 300 ppm in the gaseous environment and the concentration of pyruvate is up to 5% by weight of agar growth medium.
Miccrococcus luteus growth has been monitored using respectively 100 ppm and 300 ppm of hydrogen peroxide, whereas the concentration of pyruvate by weight of TSA agar growth medium was 1% and 5%.

microorganisms [3] = test: Level of recovery of microorganisms on TSA medium with 1% sodium pyruvate, after impact of air comprising hydrogen peroxide vapour (Examples 3 and 4); format: cell-based; settings: 1 m^3 air, 8 ppm hydrogen peroxide vapour; TSA + 1% by weight sodium pyruvate
Experimental: Example 1 was reproduced but with the use of 1 m^3 of air comprising 8 ppm (instead of 0.3 ppm) of hydrogen peroxide vapour (instead of sprayed hydrogen peroxide which was impacted, firstly, on a TSA growth medium, then, secondly, on the TSA medium to which 1% by weight of sodium pyruvate was added.
The results obtained are shown in FIG. 2, in which the x-axis represents the nature of the microorganisms and the y-axis represents the level of recovery.
Example 3 was reproduced by sampling 1 m^3 of air comprising 8 ppm of hydrogen peroxide which were impacted, firstly, on the same TSA growth medium to which 1% by weight of sodium pyruvate was added, not sterilized by the action of gamma radiation. Then, secondly, the same test was repeated but, this time, on the same growth medium sterilized by the action of gamma radiation.
The results obtained are shown in FIG. 3, in which the x-axis represents the nature of the microorganisms and the y-axis represents the level of recovery.

SMILES | effect on formation of colonies of microorganisms (microorganisms [1]) | growth of Miccrococcus luteus [2] | formation and counting of colonies of microorganisms (microorganisms [3])
OO [hydrogen peroxide] | inhibiting of the formation of the colonies of microorganisms |  | 
CC(=O)C(=O)[O-].[Na+] [sodium pyruvate] |  | enable growth of Miccrococcus luteus | permits the formation and counting of colonies of microorganisms
